Test: xn = mol fraction of the nth substance listed
Conditions: Liquid, Vibrating tube method, x1 = 0.33

C[N+](C)(C)CCO.[Cl-] [choline chloride] + OCCO
mass density [kg/m3]
Conditions | 298.15 K | 303.15 K | 308.15 K | 313.15 K | 318.15 K | 323.15 K
100 kPa | 1117.4 | 1114.5 | 1111.6 | 1108.7 | 1105.9 | 1103
5000 kPa | 1119 | 1116.1 | 1113.2 | 1110.3 | 1107.5 | 1104.7
10000 kPa | 1120.6 | 1117.7 | 1114.8 | 1111.9 | 1109.1 | 1106.3
15000 kPa | 1122.1 | 1119.3 | 1116.4 | 1113.5 | 1110.7 | 1107.9
20000 kPa | 1123.6 | 1120.8 | 1117.9 | 1115.1 | 1112.3 | 1109.5
25000 kPa | 1125.1 | 1122.3 | 1119.5 | 1116.6 | 1113.8 | 1111
30000 kPa | 1126.6 | 1123.8 | 1121 | 1118.2 | 1115.4 | 1112.6
35000 kPa | 1128.1 | 1125.3 | 1122.5 | 1119.7 | 1116.9 | 1114.1
40000 kPa | 1129.6 | 1126.8 | 1124 | 1121.2 | 1118.4 | 1115.7
45000 kPa | 1131 | 1128.2 | 1125.5 | 1122.7 | 1119.9 | 1117.2
50000 kPa | 1132.4 | 1129.6 | 1126.9 | 1124.1 | 1121.4 | 1118.7
